Here are results for 42 compounds from US11802131B2, “Glutarimides for medical treatment” (C4 Therapeutics, Inc., priority 2017, dated 2023).

SMILES strings stand for the structures. Bounds are passed on as bounds.

Chain of hCereblon(M1-L442)_hDDB1(M1-H1140) (Q96SW2 whole entry): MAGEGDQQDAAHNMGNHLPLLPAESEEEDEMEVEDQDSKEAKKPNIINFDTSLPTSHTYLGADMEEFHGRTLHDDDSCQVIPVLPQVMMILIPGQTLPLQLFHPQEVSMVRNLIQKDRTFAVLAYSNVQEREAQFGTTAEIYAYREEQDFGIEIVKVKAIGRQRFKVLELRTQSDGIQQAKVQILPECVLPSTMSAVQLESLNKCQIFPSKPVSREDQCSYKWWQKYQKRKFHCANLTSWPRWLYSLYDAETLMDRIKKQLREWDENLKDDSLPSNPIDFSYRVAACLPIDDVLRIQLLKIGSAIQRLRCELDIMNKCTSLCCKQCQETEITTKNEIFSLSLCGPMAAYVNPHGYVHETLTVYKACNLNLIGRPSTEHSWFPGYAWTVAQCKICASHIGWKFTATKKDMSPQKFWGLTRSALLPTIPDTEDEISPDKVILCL
Chain of hCereblon(M1-L442)_hDDB1(M1-H1140) (Q16531 whole entry partner): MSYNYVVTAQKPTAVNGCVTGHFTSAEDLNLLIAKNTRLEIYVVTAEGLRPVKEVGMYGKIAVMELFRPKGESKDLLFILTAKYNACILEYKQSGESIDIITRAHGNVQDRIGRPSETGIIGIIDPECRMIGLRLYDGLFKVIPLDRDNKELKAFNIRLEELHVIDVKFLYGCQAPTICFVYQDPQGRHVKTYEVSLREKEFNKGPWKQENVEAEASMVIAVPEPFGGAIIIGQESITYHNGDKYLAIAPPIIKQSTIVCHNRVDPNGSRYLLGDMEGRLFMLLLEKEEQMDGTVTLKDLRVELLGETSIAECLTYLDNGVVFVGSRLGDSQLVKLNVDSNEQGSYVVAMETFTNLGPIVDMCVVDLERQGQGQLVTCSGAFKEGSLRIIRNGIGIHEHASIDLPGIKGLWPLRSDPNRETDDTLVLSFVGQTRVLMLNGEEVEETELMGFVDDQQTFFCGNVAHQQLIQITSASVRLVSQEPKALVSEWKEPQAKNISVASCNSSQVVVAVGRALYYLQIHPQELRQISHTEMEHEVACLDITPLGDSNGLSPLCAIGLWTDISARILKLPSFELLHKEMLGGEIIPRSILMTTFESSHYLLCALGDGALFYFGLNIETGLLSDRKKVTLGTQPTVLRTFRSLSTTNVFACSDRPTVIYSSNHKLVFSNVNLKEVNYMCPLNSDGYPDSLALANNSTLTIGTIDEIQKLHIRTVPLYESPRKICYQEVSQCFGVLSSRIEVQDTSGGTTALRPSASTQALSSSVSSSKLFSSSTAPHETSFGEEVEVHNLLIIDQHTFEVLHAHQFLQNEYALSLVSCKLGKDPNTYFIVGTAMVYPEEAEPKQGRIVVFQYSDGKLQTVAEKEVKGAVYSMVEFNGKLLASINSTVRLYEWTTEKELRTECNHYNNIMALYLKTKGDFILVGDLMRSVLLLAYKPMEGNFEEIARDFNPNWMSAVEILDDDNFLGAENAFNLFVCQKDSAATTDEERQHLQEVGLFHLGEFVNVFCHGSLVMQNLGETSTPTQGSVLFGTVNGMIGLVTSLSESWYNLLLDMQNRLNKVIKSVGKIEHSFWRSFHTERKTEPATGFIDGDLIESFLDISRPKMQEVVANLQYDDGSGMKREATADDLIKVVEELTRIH

In this experiment the target is hCereblon(M1-L442)_hDDB1(M1-H1140) (Homo sapiens (Human), UniProt Q96SW2). Description: Fluorescence direct binding protocol (tryptophan fluorescence titration). The note with it: 20° C., excited at 280 nm, recorded at 340 nm, assay buffer 50 mM Hepes 7.4 200 mM NaCl; read-out: Fluorescence h-Cereblon_DDB1 Mean Kd_EQ. As to the method:
Fluorescence Direct Binding Protocol
Determination of the affinities of compounds to protein containing one or more tryptophan is measurable by monitoring the fluorescence emission in direct mode. The measurements depending on the protein available amounts are performed either manually in a cuvette on ISS-PC1 photon counting spectrofluorometer or automatically in well plates on a fluorescence plate reader device. Fluorescence titrations are performed at 20° C. in the chosen binding assay buffer by using a defined constant protein concentration against ligand concentration variations. Small aliquots of known ligand concentration solubilized in DMSO were added and the fluorescence, excited at 280 nm, was recorded at 340 nm. The fluorescence intensity was corrected for protein dilution and for the filter effect (Birdsall et al.^72).
1) Optimization of measurement parameters to minimize protein consumption and to minimize the dilution effect and the DMSO content
2) Titration measurements of the protein against ligand by at least 12 titration steps to obtain a good s-curve fit
3) Repeat the same titration measurements with the ligand alone to enable correction
4) Check the stability of the protein once by titration against DMSO alone
5) Determination of the molar extinction coefficients of the ligand at 280 and 340 nm with help of an UV-spectrophotometer
6) Use Excel template for the correction of the measured raw data
7) Use GraphPad Prism software for the quadratic binding fit and the KD evaluation.
Consider `O=C1CC[C@@H](NC(=O)C2CCc3cccnc32)C(=O)N1` (mixture of isomers) [Example 22], for which the Kd was less than 1 nM. Regarding `O=C1CCC(NC(=O)C2CCc3ccccc32)C(=O)N1` (racemic) [Example 2, N-(2,6-Dioxopiperidin-3-yl)-2,3-dihydro-1H-indene-1-carboxamide], the Kd amounted to 655 nM.

As to `CN1C(=O)CCC(NC(=O)[C@H]2CCCc3ccccc32)C1=O` (single isomer, unassigned) [Example 74], the Kd came out at 5 nM. `CN1C(=O)CCC(NC(=O)[C@H]2CCCc3ccccc32)C1=O` (single isomer, unassigned) [Example 75]: the Kd came out at 46 nM. On to `O=C1CCC(NC(=O)C2CCc3ccccc32)C(=O)N1` (single isomer, unassigned; (+)) [Example 5, (+)-N-(2,6-Dioxopiperidin-3-yl)-2,3-dihydro-1H-indene-1-carboxamide], for which the Kd is 197 nM. As for `O=C1CCC(NC(=O)C2CCc3ccccc32)C(=O)N1` (single isomer, unassigned; (-)) [Example 4, (−)-N-(2,6-Dioxopiperidin-3-yl)-2,3-dihydro-1H-indene-1-carboxamide], the figure is 68 nM; as for `O=C1CC[C@H](NC(=O)Cc2ccccc2)C(=O)N1` [Example 1, (S)-N-(2,6-Dioxo-3-piperidinyl)benzeneacetamide], 27 nM. On to `CCCN1Cc2ccccc2C1C(=O)NC1CCC(=O)NC1=O` (stereo not drawn) [Example 3, N-(2,6-Dioxopiperidin-3-yl)-2-propylisoindoline-1-carboxamide], for which the Kd worked out at 57 nM.

In the case of `O=C1CCC(NC(=O)C2CCc3ccccc32)C(=O)N1` (stereo not drawn) [Example 6, N-(2,6-Dioxopiperidin-3-yl)-2,3-dihydro-1H-indene-1-carboxamide], the Kd was 146 nM. For `O=C1CCC(NC(=O)c2c[nH]c3ccccc23)C(=O)N1` (stereo not drawn) [Example 7, N-(2,6-Dioxopiperidin-3-yl)-1H-indole-3-carboxamide], the Kd came out at 28 nM. Consider `Cn1cc(C(=O)NC2CCC(=O)NC2=O)c2ccccc21` (stereo not drawn) [Example 8, N-(2,6-Dioxopiperidin-3-yl)-1-methyl-1H-indole-3-carboxamide], for which the Kd came to 30 nM. Regarding `O=C1CCC(NC(=O)N2CCc3ccccc32)C(=O)N1` (stereo not drawn) [Example 9, N-(2,6-Dioxopiperidin-3-yl)indoline-1-carboxamide], the Kd turned out to be 2 nM. Take `O=C1CCC(NC(=O)C2CCCC2)C(=O)N1` (stereo not drawn) [Example 11, N-(2,6-Dioxopiperidin-3-yl)cyclopentanecarboxamide]: the Kd was determined as 12 nM. In the case of `O=C1CCC(NC(=O)c2coc3ccccc23)C(=O)N1` (stereo not drawn) [Example 12, N-(2,6-Dioxopiperidin-3-yl)benzofuran-3-carboxamide] it was 2 nM; in that of `O=C1CCC(NC(=O)c2csc3ccccc23)C(=O)N1` (stereo not drawn) [Example 13, N-(2,6-Dioxopiperidin-3-yl)benzo[b]thiophene-3-carboxamide], 8 nM; in that of `O=C1CCC(NC(=O)[C@@H]2CCCc3ccccc32)C(=O)N1` (stereo partly drawn) [Example 14, (1R)-N-(2,6-Dioxopiperidin-3-yl)-1,2,3,4-tetrahydronaphthalene-1-carboxamide], 4 nM. For the compound `O=C1CCC(NC(=O)[C@H]2CCCc3ccccc32)C(=O)N1` (stereo partly drawn) [Example 15, (1S)-N-(2,6-Dioxopiperidin-3-yl)-1,2,3,4-tetrahydronaphthalene-1-carboxamide], the Kd is less than 1 nM. As for `CN(C(=O)c1c[nH]c2ccccc12)C1CCC(=O)NC1=O` (stereo not drawn) [Example 16, N-(2,6-Dioxopiperidin-3-yl)-N-methyl-1H-indole-3-carboxamide], the figure is 3 nM.

With `O=C1CC[C@H](NC(=O)c2c[nH]c3ccccc23)C(=O)N1` [Example 17, (S)-N-(2,6-Dioxopiperidin-3-yl)-1H-indole-3-carboxamide], the Kd amounted to 14 nM. Take `O=C1CC[C@@H](NC(=O)c2c[nH]c3ccccc23)C(=O)N1` [Example 18, (R)-N-(2,6-Dioxopiperidin-3-yl)-1H-indole-3-carboxamide]: the Kd amounted to 14 nM. For `O=C1CC[C@H](NC(=O)C2CCc3ncccc32)C(=O)N1` (stereo partly drawn) [Example 19, N-((S)-2,6-Dioxopiperidin-3-yl)-6,7-dihydro-5H-cyclopenta[b]pyridine-5-carboxamide], the Kd was 1 nM. Turning to `O=C1CC[C@@H](NC(=O)C2CCc3ncccc32)C(=O)N1` (stereo partly drawn) [Example 20, N-((R)-2,6-Dioxopiperidin-3-yl)-6,7-dihydro-5H-cyclopenta[b]pyridine-5-carboxamide], the Kd was found to be 3 nM.

Turning to `O=C1CC[C@H](NC(=O)c2coc3ccccc23)C(=O)N1` [Example 21, (S)-N-(2,6-Dioxopiperidin-3-yl)benzofuran-3-carboxamide], the Kd turned out to be 1 nM. In the case of `O=C1CC[C@H](NC(=O)C2CCc3cccnc32)C(=O)N1` (stereo partly drawn) [Example 23, N-((S)-2,6-Dioxopiperidin-3-yl)-6,7-dihydro-5H-cyclopenta[b]pyridine-7-carboxamide] it was 25 nM; in that of `O=C1CC[C@@H](NC(=O)c2csc3ccccc23)C(=O)N1` [Example 24, (R)-N-(2,6-Dioxopiperidin-3-yl)benzo[b]thiophene-3-carboxamide], 9 nM. As for `O=C1CC[C@H](NC(=O)c2csc3ccccc23)C(=O)N1` [Example 25, (S)-N-(2,6-Dioxopiperidin-3-yl)benzo[b]thiophene-3-carboxamide], the figure is 23 nM; as for `O=C1CC[C@@H](NC(=O)[C@H]2CCCc3ccccc32)C(=O)N1` [Example 26, (S)-N-((R)-2,6-Dioxopiperidin-3-yl)-1,2,3,4-tetrahydronaphthalene-1-carboxamide], 6 nM; as for `O=C1CC[C@H](NC(=O)[C@H]2CCCc3ccccc32)C(=O)N1` [Example 27, (S)-N-((S)-2,6-Dioxopiperidin-3-yl)-1,2,3,4-tetrahydronaphthalene-1-carboxamide], 3 nM. In the case of `O=C1CC[C@H](NC(=O)N2CCCc3ccccc32)C(=O)N1` [Example 28, (S)-N-(2,6-Dioxopiperidin-3-yl)-3,4-dihydroquinoline-1(2H)-carboxamide] it was 4 nM. As to `O=C1CC[C@H](NC(=O)N2CCc3cccnc32)C(=O)N1` [Example 29, (S)-N-(2,6-Dioxopiperidin-3-yl)-2,3-dihydro-1H-pyrrolo[2,3-b]pyridine-1-carboxamide], the Kd was less than 1 nM. In the case of `O=C1CC[C@H](NC(=O)N2CCCc3cccnc32)C(=O)N1` [Example 30, (S)-N-(2,6-Dioxopiperidin-3-yl)-3,4-dihydro-1,8-naphthyridine-1 (2H)-carboxamide] it was 4 nM. For `O=C1CC[C@H](NC(=O)C2CCOc3ccccc32)C(=O)N1` (stereo partly drawn) [Example 31, N-[(3S)-2,6-Dioxo-3-piperidyl]chromane-4-carboxamide], the Kd came out at 5 nM. For `O=C1CC[C@H](NC(=O)[C@H]2CCNc3ccccc32)C(=O)N1` [Example 32, (4S)-N-[(3S)-2,6-Dioxopiperidin-3-yl]-1,2,3,4-tetrahydroquinoline-4-carboxamide], the Kd was less than 1 nM.

Take `O=C1CC[C@H](NC(=O)[C@@H]2CCNc3ccccc32)C(=O)N1` [Example 33, (4R)-N-[(3S)-2,6-Dioxopiperidin-3-yl]-1,2,3,4-tetrahydroquinoline-4-carboxamide]: the Kd was 6 nM. With `O=C1CC[C@@H](NC(=O)c2coc3ccccc23)C(=O)N1` [Example 34, (R)-N-(2,6-Dioxopiperidin-3-yl)benzofuran-3-carboxamide], the Kd was determined as 26 nM. As for `O=C1CC[C@@H](NC(=O)N2CCCc3ccccc32)C(=O)N1` [Example 35, (R)-N-(2,6-Dioxopiperidin-3-yl)-3,4-dihydroquinoline-1(2H)-carboxamide], the figure is 19 nM; as for `O=C1CC[C@@H](NC(=O)N2CCc3cccnc32)C(=O)N1` [Example 36, (R)-N-(2,6-Dioxopiperidin-3-yl)-2,3-dihydro-1H-pyrrolo[2,3-b]pyridine-1-carboxamide], 10 nM; as for `O=C1CC[C@H](NC(=O)C2CCNc3ccccc32)C(=O)N1` (stereo partly drawn) [Example 37, N-[(3S)-2,6-Dioxo-3-piperidyl]-1,2,3,4-tetrahydroquinoline-4-carboxamide], less than 1 nM. Consider `CN1CCC(C(=O)N[C@H]2CCC(=O)NC2=O)c2ccccc21` (stereo partly drawn) [Example 38, N-[(3S)-2,6-Dioxo-3-piperidyl]-1-methyl-3,4-dihydro-2H-quinoline-4-carboxamide], for which the Kd worked out at 5 nM. With `O=C1CC[C@@H](NC(=O)C2CCNc3ccccc32)C(=O)N1` (stereo partly drawn) [Example 39, N-[(3R)-2,6-Dioxo-3-piperidyl]-1,2,3,4-tetrahydroquinoline-4-carboxamide], the Kd amounted to 19 nM.

As to `CN1CCC(C(=O)N[C@@H]2CCC(=O)NC2=O)c2ccccc21` (stereo partly drawn) [Example 40, N-[(3R)-2,6-Dioxo-3-piperidyl]-1-methyl-3,4-dihydro-2H-quinoline-4-carboxamide], the Kd was determined as 68 nM. As for `O=C1CC[C@@H](NC(=O)C2CCOc3ccccc32)C(=O)N1` (stereo partly drawn) [Example 41, N-[(3R)-2,6-Dioxo-3-piperidyl]chromane-4-carboxamide], the figure is 14 nM.
